Laboratory results taken from patent publication EP4772509A1, “KINESIN KIF18A INHIBITOR, AND APPLICATION THEREOF” (Shanghai Apeiron Therapeutics Company Limited, priority 2023, dated 2025).
Like-named read-outs stand apart in the source and are kept apart here.

Legend:
HT29 cells = assay: CyQuant cell proliferation activity test; type: cell-based; conditions: Homo sapiens, HT-29, 72 h, HT29 at 2000 cells per well, 3 days, 0.2% DMSO, XLFIT
Summary of the method: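 Cells seeded at 2000/well in RPMI-1640 with 10% FBS, left overnight, then exposed 3 days at 37 °C, 5% CO2 to a 9-point 3-fold series from 3000 nM (0.2% DMSO). CyQuant signal read after 1 h; IC50 from curve fit.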

[1] = target: T1, Human KIF18A (amino acid sequence 1-417) (Homo sapiens, UniProt Q8NI77); assay: Enzymatic activity test (ADP-Glo, microtubule-stimulated ATPase); type: biochemical; conditions: 60 µg/mL microtubules, 25 µM ATP, 2.5 nM KIF18A protein, 120 min at ambient temperature, chemiluminescence
T1 construct: purchased Viva Biotech (Shanghai) Ltd
T1 sequence (Q8NI77 1-417): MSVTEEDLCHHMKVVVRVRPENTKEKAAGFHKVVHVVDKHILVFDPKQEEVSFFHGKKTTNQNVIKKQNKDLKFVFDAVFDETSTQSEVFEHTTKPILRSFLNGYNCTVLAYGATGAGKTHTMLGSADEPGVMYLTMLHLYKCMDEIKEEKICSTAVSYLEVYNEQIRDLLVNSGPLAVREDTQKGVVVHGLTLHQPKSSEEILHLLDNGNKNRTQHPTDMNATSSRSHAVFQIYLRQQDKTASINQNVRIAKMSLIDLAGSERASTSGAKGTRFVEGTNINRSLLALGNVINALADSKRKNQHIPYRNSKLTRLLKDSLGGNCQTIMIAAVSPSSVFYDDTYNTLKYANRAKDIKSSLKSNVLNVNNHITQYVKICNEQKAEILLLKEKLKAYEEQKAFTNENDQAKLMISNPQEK
Summary of the method: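 KIF18A (1-417) at 2.5 nM with 60 µg/mL microtubules and 25 µM ATP, compounds at 0-10 µM final, reacted 120 min at ambient temperature. ADP formed was read by ADP-Glo chemiluminescence after two 30 min room-temperature steps.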

OVCAR3 cells = assay: Cell proliferation activity test (CyQUANT Direct); type: cell-based; conditions: Homo sapiens, OVCAR-3, 72 h, 3 days, 0.2% DMSO, CyQUANT fluorescence
Summary of the method: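 OVCAR3 cells in RPMI-1640 with 10% FBS were seeded, then treated overnight later with compound at final 0–10 µM (0.2% DMSO) for 3 days at 37°C, 5% CO2. Proliferation was read as CyQUANT Direct fluorescence after 60 min at 37°C.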

Compound | IC50 (HT29 cells) | IC50 ([1]; KIF18A IC50 nM) | IC50 (OVCAR3 cells) | IC50 ([1]; read-out: KIF18A IC50)
Cc1cc2nc(n1)N1CCC(F)(F)C(/C=C\Cc3ccc(cc3)-c3cc(NS(=O)(=O)CCO)ccc3C(=O)N2)C1 (stereo not drawn) [Example 42, N-(1^4,1^4-difluoro-2^6-methyl-4-oxo-3-aza-2(2,4)-pyrimidin-1(1,3)-piperidin-5(1,2),6(1,4)-diphenylheterocyclonon-8-en-5^4-yl)-2-hydroxyethane-1-sulfonamide] | 162 nM | 167 nM | 136 nM | 
Cc1cc2nc(n1)N1CCC(F)(F)[C@@H](CCCC3CCN(CC3)c3cc(NS(=O)(=O)CCO)ccc3-n3cc-2nn3)C1 [Example 85, N-((1^3S,Z)-1^4,1^4-difluoro-2^6-methyl-3^1H-2(2,4)-pyrimidin-1(1,3),5(1,4)-dipiperidin-3(4,1)-triazole-4(1,2)-benzylcyclooctyl-4^4-yl)-2-hydroxyethane-1-sulfonamide] | 76 nM |  | 60 nM | 350 nM
Cc1cc2nc(n1)N1CCC(F)(F)C(C=CCC3=CC=C(S3)c3cc(NS(=O)(=O)CCO)ccc3C(=O)N2)C1 (single isomer, unassigned) [Example 57A, N-(1^4,1^4-difluoro-2^6-methyl-4-oxo-3-aza-2(2,4)-pyrimidin-1(1,3)-piperidin-6(2,5)-thiophene-5(1,2)-benzoazacyclon-8-en-5^4-yl)-2-hydroxyethane-1-sulfonamide] | 39 nM |  | 114 nM | 60 nM
Cc1cc2nc(n1)N1CCC(F)(F)C(CCc3ccc(cc3)-c3cc(NS(=O)(=O)CCO)ccc3C(=O)N2)C1 (stereo not drawn) [Example 45, N-(2^4,2^4-difluoro-1^6-methyl-7-oxo-8-aza-1(2,4)-pyrimidin-2(1,3)-piperidin-5(1,4),6(1,2)-dibenzylcycloophene-6^5-yl)-2-hydroxyethane-1-sulfonamide] | 100 nM |  | 77 nM | 114 nM
